From patent US11041184B2, “Mycobacteriophages capable of delivering auto-luminescent elements and uses thereof” (priority 2016, dated 2021)

Test system: Mtb
Assay: detecting sensitivity of a host bacterial strain (Mtb) to a drug with the ARP phage, luminescence read with a luminometer
Format: cell-based, Mycobacterium tuberculosis
Details: for bioluminescence intensity compared to a control: culture at 37° C. for at least 4 hours, DMSO control
[1] = 37° C., at least 4 hours, RIF 2 μg/mL, INH 1 μg/mL, LZD 1 μg/mL, PNU 0.5 μg/mL
[2] = FIG. 12, RIF 2 μg/mL, INH 1 μg/mL, LZD 1 μg/mL, PNU 0.5 μg/mL

| Compound | sensitivity of Mtb to the drug at the concentration [1] | bioluminescence intensity compared to a control [2] | bioluminescence compared to a control (FIG. 12, culture for 8 hours, EMB 5 μg/mL) | statistical difference between drug group and DMSO control (n.s., p>0.05) (FIG. 12 legend, EMB 5 μg/mL, time not printed in legend) | sensitivity of Mtb to the drug at the concentration (culture for 8 hours, EMB 5 μg/mL) |
| --- | --- | --- | --- | --- | --- |
| CC(=O)NC[C@H]1CN(c2ccc(N3CCOCC3)c(F)c2)C(=O)O1 [linezolid] | sensitivities | significant decrease of bioluminescence intensity | – | – | – |
| NNC(=O)c1ccncc1 [isoniazid] | sensitivities | significant decrease of bioluminescence intensity | – | – | – |
| CC[C@@H](CO)NCCN[C@@H](CC)CO [ethambutol] | – | – | significant decrease in bioluminescence | no statistical difference | sensitivity |
